Experimental data from ChEMBL document CHEMBL5584236, “Development of novel bisphenol derivatives with a membrane-targeting mechanism as potent gram-positive antibacterial agents” (Eur J Med Chem, 2024).
Calls of active or inactive are those of the source. The rule behind the calls is not given here.

Key:
Staphylococcus aureus [1] = assay: Drug resistance, ratio of MIC for Staphylococcus aureus ATCC29213 after 20 passages to MIC for Staphylococcus aureus ATCC29213 after initial exposure; type: functional
Staphylococcus aureus [2] = assay: Antibacterial activity against methicillin-resistant Staphylococcus aureus N315 assessed as reduction in bacterial growth incubated for 22 to 24 hrs in presence of MgCl2 by CLSI based broth microdilution method; type: functional; settings: time 22-24 hrs
[3] = Cytotoxicity against mouse NCTC clone 929 cells assessed as viable cells at 100 ug/ml incubated for 24 hrs by CCK-8 assay relative to control; type: toxicity, cell-based; settings: NCTC clone 929 (L929) cells, at 100 µg/mL, read-out: Activity
Staphylococcus aureus [4] = assay: Antibacterial activity against methicillin-resistant Staphylococcus aureus NCTC10442 assessed as reduction in bacterial growth incubated for 22 to 24 hrs in presence of KCl by CLSI based broth microdilution method; type: functional; settings: time 22-24 hrs
[5] = Cytotoxicity against HEK293 cells assessed as viable cells at 100 ug/ml incubated for 24 hrs by CCK-8 assay relative to control; type: toxicity, cell-based; settings: human, at 100 µg/mL, read-out: Activity
Staphylococcus aureus [6] = assay: Antibacterial activity against Staphylococcus aureus ATCC29213 assessed as reduction in bacterial growth incubated for 22 to 24 hrs in presence of ZnSO4.7H2O by CLSI based broth microdilution method; type: functional; settings: time 22-24 hrs
Staphylococcus aureus [7] = assay: Antibacterial activity against methicillin-resistant Staphylococcus aureus NCTC10442 assessed as reduction in bacterial growth incubated for 22 to 24 hrs in presence of FeCl2 by CLSI based broth microdilution method; type: functional; settings: time 22-24 hrs
Staphylococcus aureus [8] = assay: Antibacterial activity against methicillin-resistant Staphylococcus aureus NCTC10442 assessed as reduction in bacterial growth incubated for 22 to 24 hrs in presence of CaCl2 by CLSI based broth microdilution method; type: functional; settings: time 22-24 hrs
[9] = Cytotoxicity against HEK293 cells assessed as viable cells at 6.25 ug/ml incubated for 24 hrs by CCK-8 assay relative to control; type: toxicity, cell-based; settings: human, at 6.25 µg/mL, read-out: Activity
Staphylococcus aureus [10] = assay: Bactericidal activity against methicillin-resistant Staphylococcus aureus NCTC10442 assessed as cell killing at 4 to 8 times of MIC measured up to 24 hrs by time kill assay; type: functional, organism-based
[11] = Cytotoxicity against mouse NCTC clone 929 cells assessed reduction in cell viability incubated for 24 hrs by CCK-8 assay; type: toxicity, cell-based; settings: NCTC clone 929 (L929) cells
Klebsiella pneumoniae [12] = assay: Synergistic […] activity against Klebsiella pneumoniae ATCC10031 assessed as fractional inhibitory concentration index incubated for 22 to 24 hrs in presence of levofloxacin by CLSI based broth microdilution method; type: functional; settings: time 22-24 hrs
Acinetobacter baumannii [13] = assay: Antibacterial activity against Acinetobacter baumannii ATCC17978 assessed as reduction in microbial growth incubated for 22 to 24 hrs by CLSI based broth microdilution method; type: functional; settings: time 22-24 hrs
Klebsiella pneumoniae [14] = assay: Antibacterial activity against Klebsiella pneumoniae ATCC10031 assessed as reduction in microbial growth incubated for 22 to 24 hrs by CLSI based broth microdilution method; type: functional; settings: time 22-24 hrs
[15] = Hemolytic activity against rabbit RBC incubated for 1 hr by multimode plate reader; type: toxicity, cell-based, Oryctolagus cuniculus, Erythrocyte; settings: rabbit red blood cells (erythrocytes)
Staphylococcus aureus [16] = assay: Antibacterial activity against methicillin-resistant Staphylococcus aureus NCTC10442 assessed as reduction in bacterial growth incubated for 22 to 24 hrs in presence of FeCl3 by CLSI based broth microdilution method; type: functional; settings: time 22-24 hrs
Staphylococcus aureus [17] = assay: Synergistic […] activity against methicillin-resistant Staphylococcus aureus NCTC10442 assessed as fractional inhibitory concentration index incubated for 22 to 24 hrs in presence of fusidic acid by CLSI based broth microdilution method; type: functional; settings: time 22-24 hrs
Staphylococcus aureus [18] = assay: Antibacterial activity against methicillin-resistant Staphylococcus aureus NCTC10442 assessed as reduction in microbial growth incubated for 22 to 24 hrs by CLSI based broth microdilution method; type: functional; settings: time 22-24 hrs
[19] = Cytotoxicity against HEK293 cells assessed as viable cells at 3.125 ug/ml incubated for 24 hrs by CCK-8 assay relative to control; type: toxicity, cell-based; settings: human, at 3.125 µg/mL, read-out: Activity
Acinetobacter baumannii [20] = assay: Synergistic […] activity against Acinetobacter baumannii ATCC17978 assessed as fractional inhibitory concentration index incubated for 22 to 24 hrs in presence of meropenem by CLSI based broth microdilution method; type: functional; settings: time 22-24 hrs
Staphylococcus aureus [21] = assay: Bactericidal activity against methicillin-resistant Staphylococcus aureus NCTC10442 assessed as cell killing at 8 times of MIC measured with in 1 hr by time kill assay relative to control; type: functional
Staphylococcus aureus [22] = assay: Antibacterial activity against methicillin-resistant Staphylococcus aureus NCTC10442 assessed as reduction in bacterial growth incubated for 22 to 24 hrs in presence of MgCl2 by CLSI based broth microdilution method; type: functional; settings: time 22-24 hrs
Staphylococcus aureus [23] = assay: Antibacterial activity against methicillin-resistant Staphylococcus aureus N315 assessed as reduction in bacterial growth incubated for 22 to 24 hrs in presence of KCl by CLSI based broth microdilution method; type: functional; settings: time 22-24 hrs
Acinetobacter baumannii [24] = assay: Synergistic […] activity against Acinetobacter baumannii ATCC17978 assessed as fractional inhibitory concentration index incubated for 22 to 24 hrs in presence of amikacin by CLSI based broth microdilution method; type: functional; settings: time 22-24 hrs
Staphylococcus aureus [25] = assay: Synergistic […] activity against Staphylococcus aureus ATCC29213 assessed as fractional inhibitory concentration index incubated for 22 to 24 hrs in presence of fusidic acid by CLSI based broth microdilution method; type: functional; settings: time 22-24 hrs
Staphylococcus aureus [26] = assay: Induction of membrane permeabilization in Staphylococcus aureus ATCC29213 assessed as increase in fluorescence intensity measured upto 60 mins by SYTOX green assay; type: functional, organism-based
Staphylococcus aureus [27] = assay: Antibacterial activity against methicillin-resistant Staphylococcus aureus N315 assessed as reduction in bacterial growth incubated for 22 to 24 hrs in presence of NaCl by CLSI based broth microdilution method; type: functional; settings: time 22-24 hrs
Klebsiella pneumoniae [28] = assay: Synergistic […] activity against Klebsiella pneumoniae ATCC10031 assessed as fractional inhibitory concentration index incubated for 22 to 24 hrs in presence of meropenem by CLSI based broth microdilution method; type: functional; settings: time 22-24 hrs
Staphylococcus aureus [29] = assay: Antibacterial activity against Staphylococcus aureus ATCC29213 infected in C57BL6 mouse corneal infection model assessed as log reduction in CFU at 0.5 % administered topically on corneas for four times in 3 days by MHA plate counting method; type: functional; settings: route top, time 3 day
Staphylococcus aureus [30] = assay: Antibacterial activity against Staphylococcus aureus ATCC29213 assessed as reduction in bacterial growth incubated for 22 to 24 hrs in presence of FeCl2 by CLSI based broth microdilution method; type: functional; settings: time 22-24 hrs
Acinetobacter baumannii [31] = assay: Synergistic […] activity against Acinetobacter baumannii ATCC17978 assessed as fractional inhibitory concentration index incubated for 22 to 24 hrs in presence of levofloxacin by CLSI based broth microdilution method; type: functional; settings: time 22-24 hrs
Klebsiella pneumoniae [32] = assay: Synergistic […] activity against Klebsiella pneumoniae ATCC10031 assessed as fractional inhibitory concentration index incubated for 22 to 24 hrs in presence of tobramycin by CLSI based broth microdilution method; type: functional; settings: time 22-24 hrs
Staphylococcus aureus [33] = assay: Antibacterial activity against methicillin-resistant Staphylococcus aureus NCTC10442 assessed as reduction in bacterial growth incubated for 22 to 24 hrs in presence of NaCl by CLSI based broth microdilution method; type: functional; settings: time 22-24 hrs
Staphylococcus aureus [34] = assay: Antibacterial activity against Staphylococcus aureus ATCC29213 assessed as reduction in bacterial growth incubated for 22 to 24 hrs in presence of FeCl3 by CLSI based broth microdilution method; type: functional; settings: time 22-24 hrs

COC(=O)[C@H](CCCNC(=N)N)NC(=O)[C@H](CCCNC(=N)N)NC(=O)COc1ccc(S(=O)(=O)c2ccc(OC/C=C(/C)CCC=C(C)C)cc2)cc1
Ratio (Staphylococcus aureus [1]): 4 | MIC (Staphylococcus aureus [2]): 1.56 µg/mL | viability at 24 h, 100 ug/ml [3]: 74% | MIC (Staphylococcus aureus [4]): 1.56 µg/mL | viability at 24 h, 100 ug/ml [5]: 79.4% | MIC (Staphylococcus aureus [6]): 1.56 µg/mL | MIC (Staphylococcus aureus [7]): 1.56 µg/mL | MIC (Staphylococcus aureus [8]): 3.12 µg/mL | viability at 24 h, 6.25 ug/ml [9]: 96.1% | Activity (Staphylococcus aureus [10]): Active | CC50 at 24 h [11]: > 100 µg/mL | fractional inhibitory concentration index (FICI) (Klebsiella pneumoniae [12]): 0.56 | MIC (Acinetobacter baumannii [13]): 12.5 µg/mL | MIC (Klebsiella pneumoniae [14]): 6.25 µg/mL | HC50 at 1 h [15]: > 200 µg/mL | MIC (Staphylococcus aureus [16]): 1.56 µg/mL | fractional inhibitory concentration index (FICI) (Staphylococcus aureus [17]): 0.5 | MIC (Staphylococcus aureus [18]): 0.78 µg/mL | viability at 24 h, 3.125 ug/ml [19]: 102% | fractional inhibitory concentration index (FICI) (Acinetobacter baumannii [20]): 0.25 | Activity (Staphylococcus aureus [21]): 99.99% | MIC (Staphylococcus aureus [22]): 1.56 µg/mL | MIC (Staphylococcus aureus [23]): 1.56 µg/mL | fractional inhibitory concentration index (FICI) (Acinetobacter baumannii [24]): 0.28 | fractional inhibitory concentration index (FICI) (Staphylococcus aureus [25]): 0.28 | Activity (Staphylococcus aureus [26]): Dose-Dependent Effect | MIC (Staphylococcus aureus [27]): 1.56 µg/mL | fractional inhibitory concentration index (FICI) (Klebsiella pneumoniae [28]): 0.56 | log(activity) (Staphylococcus aureus [29]): 6.9 | MIC (Staphylococcus aureus [30]): 1.56 µg/mL | fractional inhibitory concentration index (FICI) (Acinetobacter baumannii [31]): 0.25 | fractional inhibitory concentration index (FICI) (Klebsiella pneumoniae [32]): 0.375 | MIC (Staphylococcus aureus [33]): 1.56 µg/mL | MIC (Staphylococcus aureus [34]): 1.56 µg/mL
